Where two headings read alike, the source gives them in different places. Blank lines part the entries; values can stand above or below the compound they belong to.
Tests used:
[1] = molecular target: T1, human PPAR-δ (Homo sapiens, UniProt Q03181); experiment: PathHunter NHR Protein Interaction assay, PPAR-δ agonist activity (CHO cells)
T1 sequence (Q03181 1-441): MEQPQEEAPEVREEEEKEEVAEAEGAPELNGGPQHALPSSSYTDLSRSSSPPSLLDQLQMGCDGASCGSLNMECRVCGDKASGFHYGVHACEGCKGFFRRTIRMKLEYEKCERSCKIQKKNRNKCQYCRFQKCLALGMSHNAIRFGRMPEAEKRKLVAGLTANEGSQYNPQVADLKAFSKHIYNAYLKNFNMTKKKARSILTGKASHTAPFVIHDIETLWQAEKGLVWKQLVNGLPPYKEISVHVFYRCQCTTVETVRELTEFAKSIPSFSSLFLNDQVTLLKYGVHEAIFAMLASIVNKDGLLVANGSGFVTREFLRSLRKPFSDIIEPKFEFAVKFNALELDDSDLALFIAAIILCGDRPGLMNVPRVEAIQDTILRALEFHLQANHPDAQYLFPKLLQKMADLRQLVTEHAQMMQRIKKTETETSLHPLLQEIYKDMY
Procedure: (§1) PPAR-α, PPAR-δ, and PPAR-γ agonist activities were measured using PathHunter Nuclear Hormone Receptor (NHR) Protein Interaction (Pro) assays (DiscoverX, Freemont, California). Briefly, Chinese hamster ovary (CHO) cell lines were used to monitor the activation of PPAR-α, PPAR-δ, and PPAR-γ in a homogenous, non-imaging assay format using Enzyme Fragment Complementation (EFC). The NHR Pro assay was based on detection of protein-protein interactions between activated, full length PPAR-α, PPAR-δ, and PPAR-γ proteins and a nuclear fusion protein containing Steroid Receptor Co-activator Peptide (SRCP) domains with one or more canonical LXXLL interaction motifs. PPAR-α, PPAR-δ, and PPAR-γ were tagged with the ProLink component of the EFC assay system, and the SRCP domain was fused to the enzyme acceptor component (EA) expressed in the nucleus. When bound by ligand, PPAR-α, PPAR-δ, or PPAR-γ migrated to the nucleus and recruited the SRCP domain, whereby complementation occurred, generating a unit of active β-Galactosidase (β-Gal) and production of chemiluminescent signal. […] Percentage activity was calculated using the following formula: % Activity=100%×(mean RLU of test sample−mean RLU of vehicle control)/(mean MAX control ligand−mean RLU of vehicle control).

[2] = molecular target: T2, human PPAR-γ (Homo sapiens, UniProt P37231); experiment: PathHunter NHR Protein Interaction assay, PPAR-γ agonist activity (CHO cells)
T2 sequence (P37231 1-505): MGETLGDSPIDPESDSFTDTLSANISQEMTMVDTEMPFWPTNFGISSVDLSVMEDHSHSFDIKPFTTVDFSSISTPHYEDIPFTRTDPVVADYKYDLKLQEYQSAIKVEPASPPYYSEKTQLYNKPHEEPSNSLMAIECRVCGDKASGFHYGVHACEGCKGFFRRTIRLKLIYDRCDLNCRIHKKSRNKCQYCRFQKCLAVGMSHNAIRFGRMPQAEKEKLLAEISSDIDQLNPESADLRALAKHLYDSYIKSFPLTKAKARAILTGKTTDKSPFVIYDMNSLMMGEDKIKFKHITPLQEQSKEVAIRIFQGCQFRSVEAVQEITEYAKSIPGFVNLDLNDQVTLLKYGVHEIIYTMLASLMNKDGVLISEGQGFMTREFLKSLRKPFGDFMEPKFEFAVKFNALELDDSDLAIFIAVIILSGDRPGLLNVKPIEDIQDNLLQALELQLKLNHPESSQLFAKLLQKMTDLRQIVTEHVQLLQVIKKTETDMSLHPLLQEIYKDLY
Procedure: as §1

[3] = molecular target: T3, human PPAR-α (Homo sapiens, UniProt Q07869); experiment: PathHunter NHR Protein Interaction assay, PPAR-α agonist activity (CHO cells)
T3 sequence (Q07869 1-468): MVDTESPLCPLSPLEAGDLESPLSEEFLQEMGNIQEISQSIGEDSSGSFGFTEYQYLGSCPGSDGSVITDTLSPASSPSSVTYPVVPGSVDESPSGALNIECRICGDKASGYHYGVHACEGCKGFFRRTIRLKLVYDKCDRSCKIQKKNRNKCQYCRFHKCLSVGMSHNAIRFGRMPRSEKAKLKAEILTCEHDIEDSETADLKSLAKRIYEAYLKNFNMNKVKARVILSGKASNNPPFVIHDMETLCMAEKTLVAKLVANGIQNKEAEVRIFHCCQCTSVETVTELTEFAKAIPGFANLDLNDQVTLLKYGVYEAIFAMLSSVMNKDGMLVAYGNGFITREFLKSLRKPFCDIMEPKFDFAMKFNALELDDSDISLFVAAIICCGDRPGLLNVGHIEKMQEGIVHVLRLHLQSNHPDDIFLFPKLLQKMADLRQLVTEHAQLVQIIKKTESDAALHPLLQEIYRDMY
Procedure: as §1

[4] = system: 12 human primary cell-based systems; experiment: BioMAP Diversity Plus panel, biomarker readouts; conditions: compared to C15:0-treated systems and non-treated controls; 740 nm and 2.2, 6.7 and 20 μM
From the text: This study examined and compared activities of a saturated free fatty acid (C15:0) and three substituents (2-methyl-, 2,2-dimethyl-, and 1-tetrazole-C15:0) across 12 human primary cell-based systems as part of DiscoverX's BioMAP Diversity Plus program. These systems are designed to model complex human tissue and disease biology of the vasculature, skin, lung, and inflammatory tissues. Quantitative measurements of biomarker activities across this broad panel, along with comparative analysis of biological activities of known bioactive agents were used to predict and compare the efficacy and function of the four compounds.
BioMAP panels consist of human primary cell-based systems designed to model different aspects of the human body in an in vitro format. The 12 systems in the Diversity PLUS panel allow test agent characterization in an unbiased way across a broad set of systems modeling various human disease states. BioMAP systems are constructed with one or more primary cell types from healthy human donors, with stimuli (such as cytokines or growth factors) added to capture relevant signaling networks that naturally occur in human tissue or pathological conditions. Vascular biology is modeled in both a Th1 (3C system) and a Th2 (4H system) inflammatory environment, as well as in a Th1 inflammatory state specific to arterial smooth muscle cells (CASM3C system). Additional systems recapitulate aspects of the systemic immune response including monocyte-driven Th1 inflammation (LPS system) or T cell stimulation (SAg system), chronic Th1 inflammation driven by macrophage activation (lMphg system) and the T cell-dependent activation of B cells that occurs in germinal centers (BT system). The BE3C system (Th1) and the BF4T system (Th2) represent airway inflammation of the lung, while the MyoF system models myofibroblast-lung tissue remodeling. Lastly, skin biology is addressed in the KF3CT system modeling Th1 cutaneous inflammation and the HDF3CGF system modeling wound healing.
Each test agent generates a signature BioMAP profile that is created from the changes in protein biomarker readouts within individual system environments. Biomarker readouts (7-17 per system) are selected for therapeutic and biological relevance, are predictive for disease outcomes or specific drug effects and are validated using agents with known mechanism of action (MoA). Each readout is measured quantitatively by immune-based methods that detect protein (e.g., ELISA) or functional assays that measure proliferation and viability. BioMAP readouts are diverse and include cell surface receptors, cytokines, chemokines, matrix molecules and enzymes.

[5] = system: C57BL/6J mice fed a high fat diet; experiment: diet-induced obese mice treated daily by gastric gavage for 12 weeks; assay type: in vivo; conditions: for Cholesterol / Glucose / IL-6 / Insulin / LDL-C / MCP-1 / TNF-α: Day 84, 6 h fasted
Procedure: Forty C57BL/6J mice were fed a high fat diet (HFD) (D12492, 60% kcals fat) for 8 weeks. Study mice were then divided into the following four groups of ten: vehicle controls, low dose C17:0-treated (5 mg/kg body weight), high-dose C17:0-treated (50 mg/kg body weight), and low-dose C15:0-treated (5 mg/kg body weight).
Table 1 provides comparisons of cardiometabolic effects in diet-induced obese mice treated daily with oral pentadecanoic acid (5 mg/kg BW), heptadecanoic acid (5 and 50 mg/kg BW) for 12 weeks compared to vehicle controls. “Results” values are based on 6 h fasted samples.

[6] = 24-hour plasma pharmacokinetics after single oral dose in rats; assay type: in vivo; conditions: for bioavailability: po
[7] = Half Maximal Effective Concentration (EC50), PPAR-α, Table 5
[8] = CHO, read-out: Maximum Response

Structure (SMILES): CCCCCCCCCCCCCC(CC)C(=O)O (stereo not drawn) [2-ethyl-C15:0, 2-ethylpentadecanoic acid]
EC50 [1]: 300 nM | EC50 % improvement over FFA form ([1]; PPAR-δ, compared to free fatty acid form): 89% | EC50 [2]: 51 µM | EC50 % improvement over FFA form ([2]; PPAR-γ, compared to free fatty acid form): >49% | PPAR-γ agonist activity (in words) ([2]; compared to the free fatty acid form): acquired PPAR-γ agonist activity | EC50 [3, 7]: 1.2 µM | EC50 % improvement over FFA form ([3]; PPAR-α, compared to free fatty acid form): 90%

Structure (SMILES): CCCCCCCCCCCCCC(C)(C)C(=O)O [2,2-dimethyl-C15:0, 2,2-dimethylpentadecanoic acid]
CD38 [4]: lower | CD99 [4]: lower | ICAM-1 [4]: lower | IL-1α [4]: lower | IL-8 [4]: lower | IP-10 [4]: lower | IP-18 [4]: lower | MCP-1 [4]: lower | MIG [4]: lower | MMP-1 [4]: lower | MMP-3 [4]: lower | MMP-9 [4]: lower | PAI-1 [4]: lower | VCAM-1 [4]: lower | eotaxin-3 [4]: lower | keratin 8/18 [4]: lower | tissue factor [4]: lower

Structure (SMILES): CCCCCCCCCCCCCCCCC(=O)O [C17:0, heptadecanoic acid]
metabolic syndrome compared to vehicle controls (in words) ([5]; 12 weeks daily oral, C15:0 5 mg/kg, C17:0 5 and 50 mg/kg): trended toward attenuated metabolic syndrome | Cholesterol ([5]; 5 mg/kg daily oral): 197 ± 31 mg/dL | Glucose ([5]; 5 mg/kg daily oral): 296 ± 23 mg/dL | IL-6 ([5]; 5 mg/kg daily oral): 42 ± 40 pg/mL | Insulin ([5]; 5 mg/kg daily oral): 7.4 ± 4.8 ng/mL | LDL-C ([5]; 5 mg/kg daily oral): 9 ± 3 mg/dL | MCP-1 ([5]; 5 mg/kg daily oral): 86 ± 30 pg/mL | TNF-α ([5]; 5 mg/kg daily oral): 3.7 ± 1.9 pg/mL | Cholesterol ([5]; 50 mg/kg daily oral): 187 ± 44 mg/dL | Glucose ([5]; 50 mg/kg daily oral): 282 ± 31 mg/dL | IL-6 ([5]; 50 mg/kg daily oral): 38 ± 32 pg/mL | Insulin ([5]; 50 mg/kg daily oral): 6.8 ± 3.5 ng/mL | LDL-C ([5]; 50 mg/kg daily oral): 8 ± 3 mg/dL | MCP-1 ([5]; 50 mg/kg daily oral): 53 ± 32 pg/mL | TNF-α ([5]; 50 mg/kg daily oral): 1.5 ± 1.5 pg/mL | EC50 [2]: > 100 µM | EC50 ([3]; EC50, PPAR-alpha, Table 4): > 100 µM

Cmin ([6]; 5 mg/kg single oral dose): 0.66 µg/mL | Tlast ([6]; 5 mg/kg single oral dose): 24 h | Cmin ([6]; 35 mg/kg single oral dose): 3.79 µg/mL | Tlast ([6]; 35 mg/kg single oral dose): 24 h | AUC(0-t) ([6]; rat, 5 mg/kg single oral dose): 28.4 µg·h/mL | Cmax ([6]; rat, 5 mg/kg single oral dose, deuterated form): 3590 ng/mL | AUC(0-t) ([6]; rat, 35 mg/kg single oral dose): 182 µg·h/mL | bioavailability ([6]; rat, 5 mg/kg, 5 mg/kg single oral dose, estimate using an AUC of 15 for a 1 mg/kg IV arm, read-out: % F): 37.8% | bioavailability ([6]; rat, 35 mg/kg, 35 mg/kg single oral dose, estimate using an AUC of 15 for a 1 mg/kg IV arm, read-out: % F): 34.7% | bioavailability ([6]; rat, 35 mg/kg, oral, rats, read-out: estimated plasma % F (bioavailability)): ~35%
Structure (SMILES): CCCCCCCCCCCCCC(C)C(=O)O (stereo not drawn) [2-methyl-C15:0, 2-methylpentadecanoic acid]
CD40 [4]: lower | ICAM-1 [4]: lower | IL-1α [4]: lower | IL-8 [4]: lower | IP-10 [4]: lower | IP-18 [4]: lower | MCP-1 [4]: lower | MIG [4]: lower | MMP-1 [4]: lower | MMP-3 [4]: lower | MMP-9 [4]: lower | PAI-1 [4]: lower | VCAM-1 [4]: lower | eotaxin-3 [4]: lower | keratin 8/18 [4]: lower | secreted IgG [4]: lower

Structure (SMILES): CCCCCCCCCCCCCC(=O)O [C14:0, myristic acid]
EC50 [2]: > 100 µM | EC50 ([3]; EC50, PPAR-alpha, Table 4): 8.35 µM | EC50 [3, 7]: 8.4 µM

Structure (SMILES): CCCCCCCCCCCCCCCC(=O)O [C16:0, palmitic acid]
EC50 [2]: > 100 µM | Emax [2, 8]: 4.68% | EC50 ([2]; PPAR-gamma, Table 7): > 100 µM | EC50 ([2]; read-out: Half Maximal Effective Concentration (EC50), PPAR-γ, Table 5): > 100 µM | Emax [3, 8]: 56.1% | EC50 ([3]; EC50, PPAR-alpha, Table 4): 27.3 µM | EC50 ([3]; EC50, PPAR-alpha, Table 7): 27.3 µM | EC50 [3, 7]: 27.3 µM
